{
  "source": "paper PMC11505670",
  "about": "“Four newly synthesized enones induce mitochondrial-mediated apoptosis and G2/M cell cycle arrest in colorectal and cervical cancer cells” (RSC Advances, 2024)",
  "format_in_all_cases": "cell-based, human",
  "key": {"HeLa cells [1]": {"test_system": "HeLa cells", "assay": "MTT cytotoxicity assay, HeLa", "settings": "for Selectivity index (SI): IC50 healthy cells (MRC-5)/IC50 tumor cells; for Cytotoxicity range: concentration range 1–100 μM; for IC50: Homo sapiens, MTT", "description": "(§1) To examine and compare the antiproliferative activities of four enones, the cytotoxicity of the compounds was assessed by the 3-(4,5-dimethylthiazol-2-yl)-2,5-diphenyltetrazolium bromide (MTT) assay[9] in, colon cancer cells (HCT-116), cervical cancer cell line (HeLa) and human fibroblast lung cell line (MRC-5) that was used as a healthy control cell line. After trypsinization, seeded (5 × 10^3 cells per well in 96-well plates) cells were treated with different concentrations of the investigated enones (1, 3, 10, 30, and 100 μM) during 48 and 72 h period incubation period +37 °C and 5–6.5% CO2. After the incubation period, the medium was removed and MTT solution (5 mg ml^−1) was added to the wells.\n(§2) After a 3 hour incubation with the MTT solution, the resulting formazan crystals were dissolved in DMSO (67-68-5, Merck). Absorbance was subsequently measured at 595 nm using a microplate reader (Zenith 3100, Anthos Labtech Instruments). The percentage of cytotoxic cells was determined using the formula: cytotoxicity (%) = (1 − (exp. group (ABS))/(control group (ABS)) × 100). IC50 values were calculated using GraphPad Prism 10 software. The selectivity index (SI) was determined using the formula: SI?IC50 value for healthy cells/IC50 value for tumor cells.[9]"}, "HCT-116 cells [2]": {"test_system": "HCT-116 cells", "assay": "MTT cytotoxicity assay, HCT-116", "settings": "for Cytotoxicity range: concentration range 1–100 μM; for Selectivity index (SI): IC50 healthy cells (MRC-5)/IC50 tumor cells; for IC50: Homo sapiens, MTT", "description": "as §1, §2"}, "MRC-5 cells": {"test_system": "MRC-5 cells", "assay": "MTT cytotoxicity assay, MRC-5 healthy control cells", "settings": "Homo sapiens", "description": "as §1, §2"}, "HCT-116 cells [3]": {"test_system": "HCT-116 cells", "assay": "Annexin V-FITC/7-AAD apoptosis flow cytometry, HCT-116", "settings": "IC50 concentration, 48 h", "description": "(§3) The type of cell death was assessed using flow cytometry using FITC Annexin V Apoptosis Detection Kit with 7-AAD (640922, Bio legend).[8] […] After treatment, cells were harvested, washed with PBS (resuspended in 100 μl of ice-cold 1X binding buffer), stained (20 μl of 7-AAD and 10 μl of Annexin V-FITC), and incubated in the dark for 15 min at +4 °C. After incubation, 400 μl of binding buffer was added and the samples were analyzed using flow cytometer Cytomics FC500 (Beckman Coulter, USA). Data analysis was performed using FlowJo Software and presented with histogram and dot plots."}, "HeLa cells [4]": {"test_system": "HeLa cells", "assay": "Annexin V-FITC/7-AAD apoptosis flow cytometry, HeLa", "settings": "IC50 concentration, 48 h", "description": "as §3"}, "[5]": {"test_system": "Bax and Bcl-2 in HCT-116 cells", "assay": "Flow cytometric analysis of Bax and Bcl-2 expression, HCT-116", "settings": "HCT-116, IC50 concentration, 48 h, from MFI", "description": "(§4) Cells were washed with PBS, fixed, permeabilized using Fixation and Permeabilization Kit (eBioscience), and stained separately for Bcl-2, Bax, and cleaved-caspase-3.[8,9] Permeabilized cells were incubated with primary antibodies: mouse anti-human-Bcl-2 (DC21, sc-783, Santa Cruz Biotech. Inc.), mouse anti-human Bax (N20, sc-493, Santa Cruz Biotech. Inc.), and anti-cleaved caspase-3 (Cell signaling Technology 9661). Following antibody incubation, cells were washed and incubated with secondary Alexa 488-conjugated antibodies (ab185015, Abcam, United Kingdom) for 30 minutes. After an additional wash with PBS, flow cytometry analysis was performed.\n(§5) Data were analyzed using FlowJo Software. The expression of Bcl-2 and Bax proteins was quantified as mean fluorescence intensity (MFI). The results were presented with bar graphs. Bax/Bcl-2 index was calculated using the formula […]. The percentage of cells expressing active caspase-3 (MFI) was presented in histograms."}, "[6]": {"test_system": "Bax and Bcl-2 in HeLa cells", "assay": "Flow cytometric analysis of Bax and Bcl-2 expression, HeLa", "settings": "IC50 concentration, 48 h, from MFI", "description": "as §4, §5"}, "[7]": {"test_system": "active caspase-3 in HCT-116 cells", "assay": "Flow cytometric analysis of active caspase-3, HCT-116", "settings": "IC50 concentration, 48 h, vs control", "description": "as §4, §5"}, "[8]": {"test_system": "active caspase-3 in HeLa cells", "assay": "Flow cytometric analysis of active caspase-3, HeLa", "settings": "IC50 concentration, 48 h, vs control", "description": "as §4, §5"}, "[9]": {"test_system": "mitochondrial membrane potential (ΔΨm) in HCT-116 cells", "assay": "Mitochondrial membrane potential (ΔΨm) JC-10 analysis, HCT-116", "settings": "IC50 concentration, 48 h", "description": "(§6) Changes in the ΔΨm caused by 48 hours of enones treatment, were assessed using JC-10 dye.[10]. (Enzo Life Sciences, Farmingdale, NY, USA).\n(§7) In healthy cells, JC-10 dye accumulates in the mitochondria as red fluorescent aggregates. However, upon cell damage, changes in ΔΨm occur and result in dislocation of JC-10 from the mitochondria to the cytosol and the monomerization of aggregates, shifting fluorescence from red to green. Cells were cultured in 24-well plate (3 × 10^4 cells per well) overnight in the incubator (5% CO2, 37 °C). […] Following treatment, cells were washed with warm 1xPBS and incubated with JC-10 dye (2.5 μM in warm PBS) at 5% CO2, 37 °C for 20 minutes. Cells were then washed with 1xPBS and observed using an Olympus IX50 inverted fluorescence microscope. Images were captured and analyzed using ImageJ software. The ratio of fluorescence emissions at 525 and 590 nm was used for quantification analysis."}, "[10]": {"test_system": "mitochondrial membrane potential (ΔΨm) in HeLa cells", "assay": "Mitochondrial membrane potential (ΔΨm) JC-10 analysis, HeLa", "settings": "IC50 concentration, 48 h", "description": "as §6, §7"}, "[11]": {"test_system": "cytochrome c in HCT-116 cells", "assay": "Cytochrome c localization by immunofluorescence, HCT-116", "settings": "IC50 concentration, 48 h", "description": "After 48 hours of treatment, immunofluorescence analysis of cytochrome c distribution and expression in treated cells was performed using glass coverslips.[10] Following the treatment, cells were washed with PBS, fixed in 4% formaldehyde for 20 min, and permeabilized with 0.2% Tween-20. Blocking was performed using a buffer containing 0.1% Tween-20 and 10% FBS for 30 min. The cells were then incubated for 1 hour at room temperature with a monoclonal mouse anti-human cytochrome c antibody (1:100, G7421, Promega, USA,)\nSubsequently, the cells were incubated for 30 minutes with a goat anti-mouse FITC (1:200, diluted in blocking buffer), washed, and images were acquired using an inverted fluorescence microscope (Olympus IX50). Image analysis was performed using ImageJ software."}, "HCT-116 cells [12]": {"test_system": "HCT-116 cells", "assay": "Cell cycle analysis (PI, flow cytometry), HCT-116", "settings": "IC50 concentration, 48 h; control 27.4%", "description": "(§8) After treatment of HCT-116 and HeLa cells with enones, cells were harvested, washed with PBS, and fixed in 70% ice-cold ethanol at +4 °C overnight.[10] The cells were then pelleted, resuspended in 1 ml PBS containing RNAse A (12091021, Sigma Aldrich), and incubated for 30 min at 37 °C. A staining solution containing propidium iodide (1 mg PI per ml PBS) (B7758, Biotrend) was added to cells, followed by 15 min incubation in the dark. Cells were analyzed by flow cytometer Cytomics FC500. DNA content was determined using Flowing Software and cell cycle distribution was presented by graph (histograms)."}, "HeLa cells [13]": {"test_system": "HeLa cells", "assay": "Cell cycle analysis (PI, flow cytometry), HeLa", "settings": "IC50 concentration, 48 h; control 29.9%", "description": "as §8"}},
  "data": [
    {"smiles": "COc1cc(/C=C/C(=O)C2CC2)ccc1OCC(=O)O", "note": "[E4, (E)-2-(4-(3-Cyclopropyl-3-oxoprop-1-en-1-yl)-2-methoxyphenoxy)acetic acid]", "values": [
      {"measurement": "Selectivity index (SI)", "setting": "HeLa cells [1]; 48 h", "value": 4.97},
      {"measurement": "Cytotoxicity range", "setting": "HeLa cells [1]; 48 h", "value": "12.12–60.72%"},
      {"measurement": "Selectivity index (SI)", "setting": "HeLa cells [1]; 72 h", "value": 19.41},
      {"measurement": "Cytotoxicity range", "setting": "HeLa cells [1]; 72 h", "value": "42.39–59.81%"},
      {"measurement": "IC50", "setting": "HeLa cells [1]; 48 h", "value": "20.1 ± 1.19", "unit": "µM"},
      {"measurement": "IC50", "setting": "HeLa cells [1]; 72 h", "value": "4.12 ± 0.08", "unit": "µM"},
      {"measurement": "Cytotoxicity range", "setting": "HCT-116 cells [2]; HCT-116, 48 h", "value": "39.29–68.45%"},
      {"measurement": "Selectivity index (SI)", "setting": "HCT-116 cells [2]; HCT-116, 48 h", "value": 10.62},
      {"measurement": "Cytotoxicity range", "setting": "HCT-116 cells [2]; HCT-116, 72 h", "value": "65.85–71.44%"},
      {"measurement": "Selectivity index (SI)", "setting": "HCT-116 cells [2]; HCT-116, 72 h", "value": 40.00},
      {"measurement": "IC50", "setting": "HCT-116 cells [2]; HCT-116, 48 h", "value": "9.42 ± 1.78", "unit": "µM"},
      {"measurement": "IC50", "setting": "HCT-116 cells [2]; HCT-116, 72 h", "value": "2 ± 0.01", "unit": "µM"},
      {"measurement": "IC50", "setting": "MRC-5 cells; MRC5, MRC-5, 48 h", "value": "> 100", "unit": "µM"},
      {"measurement": "IC50", "setting": "MRC-5 cells; MRC5, MRC-5, 72 h", "value": "> 80", "unit": "µM"},
      {"measurement": "increase of percentage of apoptotic HCT-116 cells compared to control HCT-116 cells", "setting": "HCT-116 cells [3]", "value": 6.7, "unit": "fold"},
      {"measurement": "percentage of total apoptotic HCT-116 cells (sum of early and late)", "setting": "HCT-116 cells [3]", "value": 47.23, "unit": "%"},
      {"measurement": "total percentage of apoptotic HeLa cells", "setting": "HeLa cells [4]", "value": 33.18, "unit": "%"},
      {"measurement": "Bax/Bcl-2 ratio", "setting": "[5]", "value": 1.4},
      {"measurement": "Bax/Bcl-2 ratio", "setting": "[6]", "value": 1},
      {"measurement": "MFI of active caspase-3 in HCT-116 (fold change)", "setting": "[7]", "value": 1.9, "unit": "fold change"},
      {"measurement": "MFI of active caspase-3 in HeLa (fold change)", "setting": "[8]", "value": 1.6, "unit": "fold change"},
      {"measurement": "JC10-green/JC10 red ratio in HCT-116 cells", "setting": "[9]", "value": 1.4},
      {"measurement": "JC10-green/JC10 red ratio in HeLa cells", "setting": "[10]", "value": 1.2},
      {"measurement": "RELATIVE RATIO OF CYTOSOL CYTC TO MITOCHONDRIAL CYT C IN HCT-116 CELLS", "setting": "[11]", "value": 0.9},
      {"measurement": "% OF HCT-116 CELLS, G2/M", "setting": "HCT-116 cells [12]", "value": 41.4, "unit": "%"},
      {"measurement": "% OF HELA CELLS, G2/M", "setting": "HeLa cells [13]", "value": 61.9, "unit": "%"}
    ]}
  ]
}
